From paper PMC12055641, “The Study of Antistaphylococcal Potential of Omiganan and Retro-Omiganan Under Flow Conditions” (Probiotics and Antimicrobial Proteins, 2024)
No end group written: not given here.

What was measured:
[1] = system: S. aureus ATCC 6538 biofilm; conditions: ATCC 6538, reference strain
[2] = system: S. aureus ATCC 6538 biofilm; conditions: ATCC 6538, reference strain; remark: listed apart in the source
[3] = system: S. aureus clinical strain 005S
Source text: (§1) Clinical S. aureus strains were collected from patients with atopic dermatitis during their visits to the Outpatient Clinic and hospitalization in the Department of Dermatology, Venereology and Allergology at Medical University of Gdańsk (following the approval from the ethics committee, Approval Number NKBBN/242–477/2014). Reference strains of S. aureus ATCC 25923, S. aureus ATCC 33591, S. aureus ATCC 9144, and S. aureus ATCC 12598 were obtained from the American Type Culture Collection. All the strains were stored at − 80 °C in Roti®-Store cryo vials (Carl Roth GmbH, Karlsruhe, Germany) and before the tests were transferred into fresh Mueller–Hinton Medium (BioMaxima, Lublin, Poland) and incubated for 24 h at 37 °C. Subsequently, each bacterial inoculum was seeded on Mueller–Hinton agar plates (BioMaxima) and incubated again for 24 h. The cultures prepared in this way were used in further antimicrobial assays. Minimum inhibitory concentrations (MICs) were determined according to the Clinical and Laboratory Standards Institute recommendations. […] The experiments were conducted on 96-well microtiter plates, with a final volume of 100 μL. Additionally, in the case of daptomycin, the medium was supplemented with Ca^2+ (50 mg/L). Cell densities were adjusted spectrophotometrically (Multiskan™ GO Microplate Spectrophotometer, Thermo Scientific) at 600 nm. The MICs were taken as the lowest drug concentration at which a visible growth of the microorganisms was inhibited. Minimum biofilm eliminating concentrations (MBECs) were determined on 96-well flat-bottomed microtiter polystyrene plates with resazurin (7-hydroxy-3H-phenoxazin-3-one 10-oxide sodium salt) as a cell viability reagent. To do this, the plates were filled with 100 μL of the initial inoculums of bacteria (0.5 × 10^7 CFU/mL) in the Mueller–Hinton broth and incubated for 24 h at 37 °C. […] After 24 h of incubation, 20 μL of resazurin (4 mg/mL) was added to each well and the MBEC values were read. Minimum biofilm inhibitory concentrations (MBICs) were also determined on 96-well flat-bottomed microtiter polystyrene plates as described previously. To do this, 50 μL of the compounds in the concentration range, diluted MHB, were prepared. Subsequently, the 50 μL of the staphylococcal inoculums were added to reach the same density of bacteria as that in the MBEC assay. After 24 h of incubation at 37 °C, the wells were rinsed three times with PBS and the fresh medium (100 μL) with resazurin (0.6 mg/mL) was added. Then, after 1 h of incubation, MBICs were read. […] All experiments were conducted in triplicate.

S. aureus ATCC 12598 = conditions: ATCC 12598, reference strain
Source text: as §1

[4] = system: S. aureus clinical strain 015N (MRSA); conditions: 24 h
Source text: as §1

[5] = system: S. aureus ATCC 33591 (MRSA) biofilm; conditions: ATCC 33591, 24 h
Source text: as §1

[6] = system: S. aureus clinical strain 031S biofilm
Source text: as §1

[7] = system: S. aureus clinical strain 031S
Source text: as §1

[8] = system: S. aureus ATCC 12598 biofilm; conditions: ATCC 12598, reference strain
Source text: as §1

[9] = system: S. aureus clinical strain 043SC (MRSA); conditions: 24 h
Source text: as §1

[10] = system: S. aureus clinical strain 004N (MRSA) biofilm; conditions: clinical strain 004N biofilm, 24 h
Source text: as §1

S. aureus ATCC 25923 = conditions: ATCC 25923, reference strain
Source text: as §1

[11] = system: biofilm of reference and clinical strains of staphylococci (S. aureus); conditions: for mean MBEC (corrected values) / mean MBEC (initial values) / mean MBIC (corrected values): 24 h; for mean MBIC (initial values): average over 14 strains, polystyrene 96-well plates, not corrected; for mean MBIC (corrected values): biofilm of reference and clinical strains of staphylococci
Source text: as §1

[12] = system: S. aureus clinical strain 004N (MRSA); conditions: 24 h
Source text: as §1

S. aureus ATCC 9144 = conditions: ATCC 9144, reference strain
Source text: as §1

[13] = system: reference and clinical strains of staphylococci (S. aureus); conditions: 24 h
Source text: as §1

[14] = system: S. aureus clinical strain 051N (MRSA) biofilm; conditions: clinical strain 051N biofilm, 24 h
Source text: as §1

[15] = system: S. aureus clinical strain 060S
Source text: as §1

[16] = system: S. aureus clinical strain 060S biofilm
Source text: as §1

[17] = system: S. aureus clinical strain 009S biofilm
Source text: as §1

[18] = system: S. aureus clinical strain 009S
Source text: as §1

[19] = system: S. aureus clinical strain 043SC (MRSA) biofilm; conditions: clinical strain 043SC biofilm, 24 h
Source text: as §1

[20] = system: S. aureus clinical strain 005S biofilm
Source text: as §1

[21] = system: S. aureus clinical strain 015N (MRSA) biofilm; conditions: clinical strain 015N biofilm, 24 h
Source text: as §1

[22] = system: S. aureus clinical strain 051N (MRSA); conditions: 24 h
Source text: as §1

[23] = system: S. aureus clinical strain 030N
Source text: as §1

[24] = system: S. aureus ATCC 9144 biofilm; conditions: ATCC 9144, reference strain
Source text: as §1

[25] = system: S. aureus clinical strain 030N biofilm
Source text: as §1

[26] = system: S. aureus ATCC 33591 (MRSA); conditions: ATCC 33591, 24 h
Source text: as §1

[27] = system: S. aureus ATCC 25923 biofilm; conditions: ATCC 25923, reference strain
Source text: as §1

[28] = system: human keratinocytes (HaCaT); format: cell-based; conditions: 24 h
Experimental: To evaluate the cytotoxicity of the peptides (IC50), the classic MTT assay on 96-well plates was performed for human keratinocytes (HaCaT) which were acquired from the ATCC. The assay utilizes colorimetric determination of the cell metabolic activity, and the color intensity reflects the number of live cells that can be measured spectrophotometrically. […] DMSO was added to the control cells at a final concentration of 1.0% (v/v), which was related to the maximum concentration of the solvent compounds used in the experiment. After 24 h of incubation at 37 °C (humidified 5% CO2 incubator) with the peptides, a medium containing 1 mg/mL of MTT was added to the wells up to a final concentration of 0.5 mg/mL. Subsequently, the plates were incubated at 37 °C for 4 h. Then, the medium was aspirated, and the formazan product was solubilized with DMSO. The background absorbance at 630 nm was subtracted from that at 570 nm for each well (Epoch, BioTek Instruments, USA). Six replicates were conducted for each concentration. All experiments were repeated at least twice and the resulting IC50 values were calculated with GraFit 7 software (v. 7.0, Erithacus, Berkley, CA, USA).

S. aureus ATCC 6538 = conditions: ATCC 6538, reference strain

ILRWPWWPWRRK-NH2 [Omiganan TFA^−]
MBIC [1]: 32 µg/mL | MBEC [2]: 32 µg/mL | MIC [3]: 1 mg/L | MIC (S. aureus ATCC 12598): 8 mg/L | MIC [4]: 16 mg/L | MBEC [5]: 32 µg/mL | MBIC [5]: 32 µg/mL | MBEC [6]: 16 µg/mL | MIC [7]: 1 mg/L | MBEC [8]: 32 µg/mL | MBIC [8]: 32 µg/mL | MIC [9]: 8 mg/L | MBEC [10]: 64 µg/mL | MBIC [10]: 16 µg/mL | MIC (S. aureus ATCC 25923): 16 mg/L | mean MBEC (corrected values) [11]: 42.29 µg/mL | mean MBEC (initial values) [11]: 42.29 µg/mL | mean MBIC (initial values) [11]: 17.54 µg/mL | mean MBIC (corrected values) [11]: 17.54 µg/mL | MIC [12]: 8 mg/L | MIC (S. aureus ATCC 9144): 4 mg/L | mean MIC (corrected values) [13]: 7.75 mg/L | mean MIC (initial values) [13]: 7.75 mg/L | MBEC [14]: 64 µg/mL | MBIC [14]: 32 µg/mL | MIC [15]: 2 mg/L | MBEC [16]: 16 µg/mL | MBIC [16]: 2 µg/mL | MBEC [17]: 32 µg/mL | MBIC [17]: 1 µg/mL | MIC [18]: 0.5 mg/L | MBEC [19]: 32 µg/mL | MBIC [19]: 16 µg/mL | MBEC [20]: 16 µg/mL | MBIC [20]: 2 µg/mL | MBEC [21]: 64 µg/mL | MBIC [21]: 16 µg/mL | MIC [22]: 16 mg/L | MIC [23]: 8 mg/L | MBEC [24]: 32 µg/mL | MBIC [24]: 16 µg/mL | MBEC [25]: 32 µg/mL | MBIC [25]: 16 µg/mL | MIC [26]: 16 mg/L | MBEC [27]: 128 µg/mL | MBIC [27]: 32 µg/mL | IC50 [28]: 77.10 mg/L | MIC (S. aureus ATCC 6538): 4 mg/L

ILRWPWWPWRRK-NH2 [Omiganan AcO^−]
MBIC [1]: 32 µg/mL | MBEC [2]: 64 µg/mL | MIC [3]: 1 mg/L | MIC (S. aureus ATCC 12598): 8 mg/L | MIC [4]: 8 mg/L | MBEC [5]: 64 µg/mL | MBIC [5]: 32 µg/mL | MBEC [6]: 16 µg/mL | MIC [7]: 1 mg/L | MBEC [8]: 32 µg/mL | MBIC [8]: 16 µg/mL | MIC [9]: 8 mg/L | MBEC [10]: 32 µg/mL | MBIC [10]: 8 µg/mL | MIC (S. aureus ATCC 25923): 16 mg/L | mean MBEC (initial values) [11]: 38.86 µg/mL | mean MBIC (initial values) [11]: 14.54 µg/mL | MIC [12]: 8 mg/L | MIC (S. aureus ATCC 9144): 4 mg/L | mean MIC (initial values) [13]: 6.82 mg/L | MBEC [14]: 64 µg/mL | MBIC [14]: 16 µg/mL | MIC [15]: 1 mg/L | MBEC [16]: 16 µg/mL | MBIC [16]: 1 µg/mL | MBEC [17]: 16 µg/mL | MBIC [17]: 1 µg/mL | MIC [18]: 0.5 mg/L | MBEC [19]: 16 µg/mL | MBIC [19]: 16 µg/mL | MBEC [20]: 16 µg/mL | MBIC [20]: 1 µg/mL | MBEC [21]: 32 µg/mL | MBIC [21]: 16 µg/mL | MIC [22]: 8 mg/L | MIC [23]: 8 mg/L | MBEC [24]: 16 µg/mL | MBIC [24]: 16 µg/mL | MBEC [25]: 32 µg/mL | MBIC [25]: 16 µg/mL | MIC [26]: 16 mg/L | MBEC [27]: 128 µg/mL | MBIC [27]: 32 µg/mL | IC50 [28]: 73.72 mg/L | MIC (S. aureus ATCC 6538): 8 mg/L

ILRWPWWPWRRK-NH2 [Omiganan Cl^−]
MBIC [1]: 32 µg/mL | MBEC [2]: 32 µg/mL | MIC [3]: 1 mg/L | MIC (S. aureus ATCC 12598): 8 mg/L | MIC [4]: 16 mg/L | MBEC [5]: 64 µg/mL | MBIC [5]: 32 µg/mL | MBEC [6]: 16 µg/mL | MIC [7]: 1 mg/L | MBEC [8]: 64 µg/mL | MBIC [8]: 32 µg/mL | MIC [9]: 8 mg/L | MBEC [10]: 64 µg/mL | MBIC [10]: 16 µg/mL | MIC (S. aureus ATCC 25923): 16 mg/L | mean MBEC (corrected values) [11]: 38.86 µg/mL | mean MBEC (initial values) [11]: 45.71 µg/mL | mean MBIC (initial values) [11]: 17.46 µg/mL | mean MBIC (corrected values) [11]: 14.84 µg/mL | MIC [12]: 8 mg/L | MIC (S. aureus ATCC 9144): 4 mg/L | mean MIC (corrected values) [13]: 6.77 mg/L | mean MIC (initial values) [13]: 7.96 mg/L | MBEC [14]: 64 µg/mL | MBIC [14]: 32 µg/mL | MIC [15]: 1 mg/L | MBEC [16]: 16 µg/mL | MBIC [16]: 2 µg/mL | MBEC [17]: 32 µg/mL | MBIC [17]: 1 µg/mL | MIC [18]: 0.5 mg/L | MBEC [19]: 32 µg/mL | MBIC [19]: 16 µg/mL | MBEC [20]: 32 µg/mL | MBIC [20]: 1 µg/mL | MBEC [21]: 64 µg/mL | MBIC [21]: 16 µg/mL | MIC [22]: 8 mg/L | MIC [23]: 16 mg/L | MBEC [24]: 32 µg/mL | MBIC [24]: 16 µg/mL | MBEC [25]: 64 µg/mL | MBIC [25]: 16 µg/mL | MIC [26]: 16 mg/L | MBEC [27]: 64 µg/mL | MBIC [27]: 32 µg/mL | IC50 [28]: 63.99 mg/L | MIC (S. aureus ATCC 6538): 8 mg/L
